# Values quoted from earlier work, collected in US20030129188A1, “Integrin targeting compounds” (The Scripps Research Institute, priority 2001, published 2003).
# Settings: more potent than doxorubicin itself
compound,measurement,value
COc1cccc2c1C(=O)c1c(O)c3c(c(O)c1C2=O)C[C@@](O)(C(=O)CO)C[C@@H]3O[C@H]1C[C@H](N2C=CCC2)[C@H](O)[C@H](C)O1 [2-pyrrolinodoxorubicin],potency relative to doxorubicin,500-1000 times
